Source: patent US20170008928A1, “NOVEL PEPTIDES AND PEPTIDE DERIVATIVES AND USES THEREOF” (Novo Nordisk A/S, priority 2015, published 2017)
Like-named read-outs stand apart in the source and are kept apart here. Starred links: 1 amine or outer side, 2 acyl side, 3 side chain; linkers in the order of their positions; H or OH if unused. Non-standard residues stand in square brackets, D forms with d. Residues, ends and D or L forms follow the SMILES beside them. *: point of attachment. Phe(4-CH2SO3H) = N[C@@H](Cc1ccc(CS(=O)(=O)O)cc1)C(=O)O; sY = N[C@@H](Cc1ccc(OS(=O)(=O)O)cc1)C(=O)O; C18 diacid = O=C(O)CCCCCCCCCCCCCCCCC(=O)*; d(βAsp) = O=C(O)[C@@H](CC(=O)[*:2])N[*:1]; γGlu = O=C(O)[C@H](CCC(=O)[*:2])N[*:1]; Met(O2) = CS(=O)(=O)CC[C@H](N)C(=O)O; NMeF = CN[C@@H](Cc1ccccc1)C(=O)O; dNMeD = CN[C@H](CC(=O)O)C(=O)O; Nle = CCCC[C@H](N)C(=O)O; AEEA = NCCOCCOCC(=O)O

Legend:
[1] = biological target: T1, human cholecystokinin-1 receptor (CCK-1R) (Homo sapiens, UniProt P32238); experiment: In vitro receptor binding to CCK-1R, SPA displacement of [125I]-CCK-8s from plasma membranes
T1 construct: host or cells: 1321-N1 cells
T1 sequence (P32238 1-428): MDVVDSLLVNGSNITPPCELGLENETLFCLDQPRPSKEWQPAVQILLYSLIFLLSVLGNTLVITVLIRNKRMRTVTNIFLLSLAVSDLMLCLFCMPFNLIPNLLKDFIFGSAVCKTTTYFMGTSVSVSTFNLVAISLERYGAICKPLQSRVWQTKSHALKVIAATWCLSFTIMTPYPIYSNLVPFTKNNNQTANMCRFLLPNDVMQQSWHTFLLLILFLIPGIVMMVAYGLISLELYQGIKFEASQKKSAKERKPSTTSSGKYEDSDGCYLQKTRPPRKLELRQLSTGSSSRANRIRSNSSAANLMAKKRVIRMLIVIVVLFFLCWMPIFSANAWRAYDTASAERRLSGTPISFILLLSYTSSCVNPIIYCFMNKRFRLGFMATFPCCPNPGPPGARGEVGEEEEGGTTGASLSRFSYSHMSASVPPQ
Method: The in vitro binding affinity is a measure of the strength of attraction between a receptor and its ligand.
Displacement of radio ligand was measured as reduction in light emission from SPA beads.
The cells used in these assays were 1321-N1 cells stably expressing the CCK-1R or the CCK-2R (Perkin Elmer product numbers ES-530-A and ES-531-A, respectively see www.perkinelmer.com/Catalog/Product/ID/ES-530-A or -ES-531-A, respectively).
The cells were cultured in an incubator (95% RH (relative humidity), 5% (of standard atmospheric pressure) CO2, 37° C.) in cell culture medium (DMEM (Lonza catalogue BE-12-604F/U1), with 10% (v/v) Foetal Calf Serum (FCS, Gibco catalogue 16140-071), 1% (w/w) Sodium pyruvate (Gibco catalogue 11360-039), 500 μg/ml Geneticin® (G418) (Gibco catalogue 10131-027), 25 μg/ml Zeocin™ (Invitrogen catalogue R250-05), 1% (w/w) Pen/Strep (Gibco catalogue 15140-122)).
Plasma membranes were prepared by Evotec AG Hamburg by use of the ParrBomb (#4635, Parr Instrument Company). Cells were lysed with a lysis buffer (50 mM Tris, 2.5 mM EDTA, pH7) with added protease inhibitors (Complete Proteaseinhibitors EDTA-free (#05056489001, Roche), 1 tablet per 50 mL lysis buffer). The membrane fraction was separated by centrifugation. First, the cell lysate was centrifuged at 1000×g for 10 minutes at 4° C. The pellet was discarded and the supernatant was then centrifuged at 100.000×g for 30 minutes at 4° C. The supernatant was discarded and the pellet was re-suspended in 1 ml/5×10^8 cells ice cold membrane buffer (50 mM Tris, 320 mM Sucrose and Complete Proteaseinhibitors EDTA-free (#05056489001, Roche); pH7.4) and homogenised with dounce homogeniser. The protein concentration was determined using the Pierce™ BCA Protein Assay Kit according to kit manual, and the membrane preparation was adjust to the desired protein concentration with membrane buffer and aliquoted into pre-cooled tubes, snap-frozen in liquid nitrogen, and stored at −80° C.
CCK receptor binding assays were performed in 96-well Optiplates (Cat #6005290, PerkinElmer, Waltham, Mass., USA) in a total volume of 200 μl per well. CCK derivatives in 80% DMSO stock solutions of 800 μM were serially diluted […] in assay buffer (50 mM Tris/HCl, 4.5 mM MgCl2, […], 0.02% Tween 20, 0.25% ovalbumin, 0.1% pluronic F-68, pH 7.4) to final assay concentrations ranging from 10^−5 M (ten μM) to 10^−12 M (one pM).
Fifty μl of reference or test compounds were added to the Optiplates (using technical duplicates, i.e. two wells of each sample, one data point being the average of two wells), followed by addition of 150 μl of the mixture of SPA bead, radio ligand, and plasma membrane. The plates were sealed and incubated in the dark at +22° C. for 2 hours on a IKA MTS plate shaker (IKA-Werke D-79219 Staufen) set at 300 rpm and thereafter centrifuged at 1500 rpm for 10 minutes in a Heraeus Multifuge 3s centrifuge. SPA bead light emission was measured in a TopCount NXT (PerkinElmer) for 2 min/well after a delay of 60 min.
As a measure of compound affinity, calculations were performed in order to determine the half maximal inhibitory concentration (the IC50 value).
The data from the TopCounter were given as counts per minute (CPM). The CPM was plotted as a function of the concentration of compound. Dose-response curves were obtained, and IC50 values were calculated, by a nonlinear three-parameter logistic equation (log(agonist) vs response) with hillslope=−1, and shared top and bottom using the software programme GraphPad Prism v 6.0 (Graph Pad software, La Jolla, Calif., USA). The highest dose tested was 10^−5 M (1×10^7 pM).
The preference of a specific compound for the CCK-1 receptor, or the CCK-1R selectivity, may be defined as IC50 (CCK-2R)/IC50 (CCK-1R).
A minimum of three biological replicates was measured for each test compound on separate assay plates.

[2] = biological target: T2, human cholecystokinin-2 receptor (CCK-2R) (Homo sapiens, UniProt P32239); experiment: In vitro receptor binding to CCK-2R, SPA displacement of [125I]-CCK-8s from plasma membranes
T2 construct: host or cells: 1321-N1 cells (plasma membranes prepared by Evotec AG Hamburg)
T2 sequence (P32239 1-447): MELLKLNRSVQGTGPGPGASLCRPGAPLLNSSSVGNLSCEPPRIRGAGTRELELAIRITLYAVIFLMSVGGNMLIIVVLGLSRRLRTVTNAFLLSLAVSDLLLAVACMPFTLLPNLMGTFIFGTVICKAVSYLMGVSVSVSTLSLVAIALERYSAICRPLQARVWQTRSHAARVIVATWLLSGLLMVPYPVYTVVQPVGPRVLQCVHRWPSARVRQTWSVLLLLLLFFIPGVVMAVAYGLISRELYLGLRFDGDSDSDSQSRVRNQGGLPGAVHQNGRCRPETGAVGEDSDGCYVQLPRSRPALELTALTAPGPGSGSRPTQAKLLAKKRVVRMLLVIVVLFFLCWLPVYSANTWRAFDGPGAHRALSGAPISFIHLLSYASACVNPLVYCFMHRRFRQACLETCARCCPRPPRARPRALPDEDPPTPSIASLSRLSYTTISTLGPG

[3] = biological target: T2, human cholecystokinin-2 receptor (CCK-2R); experiment: In vitro potency on CCK-2R, whole cell functional assay (IP1 accumulation, IP-One HTRF); format: cell-based
[4] = displacement of [125I]-CCK-8s, plasma membranes of 1321-N1 cells expressing CCK-1R, read-out: IC50 (CCK-1R)
[5] = displacement of [125I]-CCK-8s, plasma membranes of 1321-N1 cells expressing CCK-2R, highest dose tested 1×10^7 pM, read-out: IC50 (CCK-2R)
[6] = 1321-N1 cells stably expressing CCK-2R, IP1 accumulation, highest dose tested 1×10^6 pM, read-out: EC50 (CCK-2R)

IC50 [1, 4] [nM]	IC50 [2, 5] [nM]	EC50 [3, 6] [nM]	Compound	IC50 [1] [nM]	IC50 [2] [nM]	EC50 [3] [nM]
			CC(C)C[C@H](NC(=O)[C@H](Cc1ccc(OS(=O)(=O)O)cc1)NC(=O)[C@H](CC(=O)O)NC(=O)COCCOCCNC(=O)COCCOCCNC(=O)CC[C@H](NC(=O)CCCCCCCCCCCCCCCCC(=O)O)C(=O)O)C(=O)NCC(=O)N[C@@H](Cc1c[nH]c2ccccc12)C(=O)N[C@@H](CCC(N)=O)C(=O)N(C)[C@H](CC(=O)O)C(=O)N(C)[C@@H](Cc1ccccc1)C(N)=O [Example 11, 2-[2-[2-[[2-[2-[2-[[(4S)-4-Carboxy-4-(17-carboxyheptadecanoylamino)butanoyl]amino]ethoxy]ethoxy]acetyl]amino]ethoxy]ethoxy]acetyl-Asp-sTyr-Leu-Gly-Trp-Gln-DMeAsp-MePhe-amide] ({C18 diacid-γGlu-AEEA-AEEA}-D[sY]LGWQ[dNMeD][NMeF]-NH2)	0.084	> 10000	> 1000
0.072	> 10000	> 1000	CCCC[C@H](NC(=O)[C@H](Cc1ccc(CS(=O)(=O)O)cc1)NC(=O)[C@@H](CC(=O)O)NC(=O)COCCOCCNC(=O)COCCOCCNC(=O)CC[C@H](NC(=O)CCCCCCCCCCCCCCCCC(=O)O)C(=O)O)C(=O)NCC(=O)N[C@@H](Cc1c[nH]c2ccccc12)C(=O)N[C@@H](CCCC)C(=O)N(C)[C@H](CC(=O)O)C(=O)N(C)[C@@H](Cc1ccccc1)C(N)=O [Example 25, 2-[2-[2-[[2-[2-[2-[[(4S)-4-Carboxy-4-(17-carboxyheptadecanoylamino)butanoyl]amino]ethoxy]ethoxy]acetyl]amino]ethoxy]ethoxy]acetyl-DAsp-Phe(4-sulfomethyl)-Nle-Gly-Trp-Nle-DMeAsp-MePhe-amide] ({C18 diacid-γGlu-AEEA-AEEA}-[dD][Phe(4-CH2SO3H)][Nle]GW[Nle][dNMeD][NMeF]-NH2)			
0.13	> 10000	> 1000	CCCC[C@H](NC(=O)[C@H](Cc1ccc(CS(=O)(=O)O)cc1)NC(=O)C[C@@H](NC(=O)COCCOCCNC(=O)COCCOCCNC(=O)CC[C@H](NC(=O)CCCCCCCCCCCCCCCCC(=O)O)C(=O)O)C(=O)O)C(=O)NCC(=O)N[C@@H](Cc1c[nH]c2ccccc12)C(=O)N[C@@H](CCCC)C(=O)N(C)[C@H](CC(=O)O)C(=O)N(C)[C@@H](Cc1ccccc1)C(N)=O [Example 27, 2-[2-[2-[[2-[2-[2-[[(4S)-4-Carboxy-4-(17-carboxyheptadecanoylamino)butanoyl]amino]ethoxy]ethoxy]acetyl]amino]ethoxy]ethoxy]acetyl-DbAsp-Phe(4-sulfomethyl)-Nle-Gly-Trp-Nle-DMeAsp-MePhe-amide] ({C18 diacid-γGlu-AEEA-AEEA-d(βAsp)}-[Phe(4-CH2SO3H)][Nle]GW[Nle][dNMeD][NMeF]-NH2)			
			CC(C)C[C@H](NC(=O)[C@H](Cc1ccc(OS(=O)(=O)O)cc1)NC(=O)[C@H](CC(=O)O)NC(=O)COCCOCCNC(=O)COCCOCCNC(=O)CC[C@H](NC(=O)CCCCCCCCCCCCCCCCC(=O)O)C(=O)O)C(=O)NCC(=O)N[C@@H](Cc1c[nH]c2ccccc12)C(=O)N[C@@H](C)C(=O)N(C)[C@H](CC(=O)O)C(=O)N(C)[C@@H](Cc1ccccc1)C(N)=O [Example 40, 2-[2-[2-[[2-[2-[2-[[(4S)-4-Carboxy-4-(17-carboxyheptadecanoylamino)butanoyl]amino]ethoxy]ethoxy]acetyl]amino]ethoxy]ethoxy]acetyl-Asp-sTyr-Leu-Gly-Trp-Ala-DMeAsp-MePhe-amide] ({C18 diacid-γGlu-AEEA-AEEA}-D[sY]LGWA[dNMeD][NMeF]-NH2)	0.65	> 10000	880
			CC(C)C[C@H](NC(=O)[C@H](Cc1ccc(OS(=O)(=O)O)cc1)NC(=O)[C@@H](N)CC(=O)O)C(=O)NCC(=O)N[C@@H](Cc1c[nH]c2ccccc12)C(=O)N[C@@H](CCC(N)=O)C(=O)N(C)[C@H](CC(=O)O)C(=O)N(C)[C@@H](Cc1ccccc1)C(N)=O [Example 62, Asp-sTyr-Leu-Gly-Trp-Gln-DMeAsp-MePhe-amide] (H-D[sY]LGWQ[dNMeD][NMeF]-NH2)	0.075	> 10000	> 1000
			CC(C)C[C@H](NC(=O)[C@H](Cc1ccc(OS(=O)(=O)O)cc1)NC(=O)[C@@H](N)CC(=O)O)C(=O)NCC(=O)N[C@@H](Cc1c[nH]c2ccccc12)C(=O)N[C@H](C(=O)N(C)[C@H](CC(=O)O)C(=O)N(C)[C@@H](Cc1ccccc1)C(N)=O)C(C)C [Example 65, Asp-sTyr-Leu-Gly-Trp-Val-DMeAsp-MePhe-amide] (H-D[sY]LGWV[dNMeD][NMeF]-NH2)	0.62	> 10000	> 1000
0.029	> 10000	> 1000	CCCC[C@H](NC(=O)[C@H](Cc1c[nH]c2ccccc12)NC(=O)CNC(=O)[C@H](CC(C)C)NC(=O)[C@H](Cc1ccc(OS(=O)(=O)O)cc1)NC(=O)[C@@H](N)CCC(=O)O)C(=O)N(C)[C@H](CC(=O)O)C(=O)N[C@@H](Cc1ccccc1)C(N)=O [Example 90, Glu-sTyr-Leu-Gly-Trp-Nle-DMeAsp-Phe-amide] (H-E[sY]LGW[Nle][dNMeD]F-NH2)			

Compound	IC50 [1, 4] [nM]	IC50 [2, 5] [nM]	EC50 [3, 6] [nM]	IC50 [1] [nM]	IC50 [2] [nM]	EC50 [3] [nM]
CC(C)C[C@H](NC(=O)[C@H](Cc1ccc(OS(=O)(=O)O)cc1)NC(=O)[C@@H](N)CC(=O)O)C(=O)NCC(=O)N[C@@H](Cc1c[nH]c2ccccc12)C(=O)N[C@@H](CCS(C)(=O)=O)C(=O)N(C)[C@H](CC(=O)O)C(=O)N(C)[C@@H](Cc1ccccc1)C(N)=O [Example 63, Asp-sTyr-Leu-Gly-Trp-Met(O2)-DMeAsp-MePhe-amide] (H-D[sY]LGW[Met(O2)][dNMeD][NMeF]-NH2)			> 1000	0.54	> 10000	
